Experimental findings from patent US11419335B2, “N-arylated analogues and uses thereof” (University of Florida Research Foundation, Incorporated, priority 2016, dated 2022) are described below.

The test system of assay [1] is C. neoformans ATCC 66031. The assay is described as follows: Fungal MIC susceptibility assay, C. neoformans. It is filed as cell-based. To be noted: for C. neoformans 66031 MIC: Table 2B. As to the method:
Fungal minimum inhibition concentrations (MICs) were determined using standard microdilution methods according to the Clinical and Laboratory Standards Institute document M27-A3. The test compound concentration ranged from 0.01 to 100 μM. Amphotericin B (AmB) and itraconazole (ITC) (Fisher Scientific) were included as positive controls. DMSO, the vehicle control, was used at ≤1% v/v for these experiments. The fungal M27-A3 standard MIC assay protocol requires the following inoculum preparation protocol: The organisms were cultured onto PDA medium at 35° C. The inoculum is prepared by picking five colonies from 24-hour old culture of Candida spp. or 48-hour old culture of C. neoformans. The inoculum was suspended in 5 ml of sterile water, the resulting suspension was vortexed for 15 seconds and the cell density adjusted (by adding more sterile water) to an OD530=0.30, which yields a suspension of 1×10^6 to 5×10^6 cells per mL. The suspension was diluted 50 times and then 20 times using RPMI 1640 medium to obtain the two times test inoculum (1×10^3 to 5×10^3 cells per mL). The following steps are the same with the standard bacterial MIC protocol using 96-well plates. NOTE: RPMI 1640 medium was used in the fungal MIC assay (for both cell inoculum and compound dilution).

The subject of assay [2] is C. neoformans ATCC 66031. Briefly: Minimum fungicidal concentration assay, C. neoformans. It is filed as cell-based. To be noted: Table 2B.
Assay [3] relates to MRSE ATCC 35984 biofilms. Briefly: Calgary Biofilm Device assay (MBC/MBEC), MRSE 35984. Type of assay: cell-based, Staphylococcus epidermidis. As to the method:
The lid of the Calgary device was then removed, washed and transferred to another 96-well plate containing 2-fold serial dilutions of the test compounds (the “challenge plate”). The total volume of media with compound in each well in the challenge plate is 150 μL. […] The lid was then removed from the challenge plate and MBC/MBEC values were determined using different final assays. […] The MBC values were determined as the concentration giving a lack of visible bacterial growth (i.e., turbidity). […] In select experiments, pegs from the Calgary device were removed from lead biofilm eradicators after final incubation, sonicated for 30 minutes in PBS and plated out to determine biofilm cell killing of lead biofilm-eradicating agents (i.e., colony forming unit per milliliter, CFU/mL).
Using a Calgary Biofilm Device, bacterial biofilms are established on pegs suspended to the bottom of a 96-well plate lid. Following biofilm establishment on lid pegs, lids are then transferred to new 96-well plates containing serial dilutions of test compound and allowed to incubate. After compound treatment, 96-well plate lids with pegs are once again transferred to 96-well plates containing fresh media. During this final phase of the assay, viable biofilms will grow and disperse planktonic cells into the media where they will grow and give a turbid well result. Conversely, wells that have no growth are a result of pegs that had eradicated bacterial biofilms. The lowest concentration at which no turbidity is observed is the minimum biofilm eradication concentration (MBEC). Using the Calgary Biofilm Device, both minimum biofilm eradication concentrations and minimum bactericidal concentrations (MBC) for planktonic bacterial can be determined using one assay from a single bacterial culture (FIG. 3A).

Assay [4] has as its system Klebsiella pneumoniae (ATCC 13883). Briefly: MIC broth microdilution, K. pneumoniae 13883. It is filed as cell-based. As to the method: (§1) The minimum inhibitory concentration (MIC) for each tested compound was determined by the broth microdilution method as recommended by the Clinical and Laboratory Standards Institute (CLSI). In a 96-well plate, eleven two-fold serial dilutions of each compound were made in a final volume of 100 μL Luria Broth. Each well was inoculated with ˜10^5 bacterial cells at the initial time of incubation, prepared from a fresh log phase culture (OD600 of 0.5 to 1.0 depending on bacterial strain). The MIC was defined as the lowest concentration of compound that prevented bacterial growth after incubating 16 to 18 hours at 37° C. (MIC values were supported by spectrophotometric readings at OD600). DMSO served as our vehicle and negative control in each microdilution MIC assay. DMSO was serially diluted with a top concentration of 1% v/v.
as §1, with “for each compound was” for “for each tested compound was”, “Standards Institute (CLSI).^6 In a” for “Standards Institute (CLSI). In a”, “concentration of test compound that” for “concentration of compound that”, “37° C. The concentration range tested for each compound during this study was 0.10 to 100 μM. DMSO served” for “37° C. (MIC values were supported by spectrophotometric readings at OD600). DMSO served”, “1% v/v. All MIC values were obtained from a minimum of three independent experiments.” for “1% v/v.”

Assay [5] relates to MRSA BAA-1707 stationary cultures. The assay is described as follows: MRSA persister cell kill kinetics (stationary cultures). To be noted: 50 μM; after 90 minutes. It is filed as cell-based, Staphylococcus aureus. As to the method:
An overnight culture of MRSA BAA-1707 was diluted in fresh TSBG (1:13 to 1:20 fold) and allowed to grow with shaking. Once the culture reached stationary phase (4-6 hours), test compounds were added at a final test concentration of 50 μM. The cultures were incubated with shaking at 250 rpm and aliquots were removed and plated out at predetermined time points. Colony forming units (CFU) per milliliter data was recorded and plotted using Graphpad Prism 6.0.
The panel of membrane-active compounds was also evaluated head-to-head at 50 μM against MRSA BAA-1707 stationary cultures in kinetic killing experiments. Stationary cultures of S. aureus have elevated populations of metabolically dormant persister cells^36,37 and using this experiment, we could get multiple early time points to see if 1 and 2 were rapid killers of MRSA persister cells.
An overnight culture of MRSA BAA-1707 was diluted in fresh TSBG (1:13 to 1:20 fold) and allowed to grow with shaking. Once the culture reached stationary phase (4-6 hours), test compounds were added at a final test concentration of 50 μM. The cultures were incubated with shaking at 250 rpm and aliquots were removed and plated out at different time points. Colony forming units (CFU) per milliliter data was recorded and plotted using Graphpad Prism 6.0.

Read-outs that look alike come from different tables or passages of the source. Marks after values point to notes of the source that are not given here.

As to `CCCCCCCCCCCCCCCCn1cc[n+](CCO)c1C.[Br-]` [Compound 11], the C. neoformans 66031 MIC in assay [1] was determined as 1.56 µM. Moreover, the “MIC C. neof 66031” value in assay [1] (Table 4, antifungal) stood at 6.25 µM. For the same molecule, in assay [2], the C. neoformans 66031 MBC was determined as 3.13 µM. In assay [3] (Table 2A, CBD assay), the “MRSE 35984 MBC” value was 3.9/3.9 μM and the “MRSE 35984 MBEC” value was 3.9/3.9 μM. The “MIC K. pneu. 13883” value in assay [4] (Table 4) came out at 18.8a micromolar.

With `CCCCCCCCCCCCCCCCn1cc[n+](Cc2ccccc2)c1C` [NH125, 3-benzyl-1-hexadecyl-2-methyl-1H-imidazol-3-ium bromide, reference compound], the minimum inhibitory concentration (MIC) is 3.13 µM in assay [1] (Cryptococcus neoformans, ATCC66031, Table 4, antifungal, read-out: MIC C. neof 66031); 18.8 µM in assay [4] (Klebsiella pneumoniae, ATCC13883, Table 1, read-out: MIC K. pneumoniae 13883); 18.8 µM in assay [4] (Klebsiella pneumoniae, ATCC13883, Table 4, read-out: MIC K. pneu. 13883). Also, in assay [5], the “reduction of stationary MRSA cells” value is around 1 logs. In assay [3] (Staphylococcus epidermidis, Table 2, CBD assay, planktonic cells), this molecule registered an MBC of 15.6 µM. Also, in assay [3] (Table 2, CBD assay, biofilm), the “MRSE 35984 MBEC” value was determined as 5.9 µM.

Molecule `CCCCCCCCCCCCCCCC[N+](C)(C)Cc1ccccc1.[Cl-]` [BAC-16, reference compound] had a C. neoformans 66031 MIC in assay [1] of 3.12 µM. In addition, the “MIC C. neof 66031” value in assay [1] (Table 4, antifungal) came to 6.25 µM. Moreover, the C. neoformans 66031 MBC in assay [2] is 6.25 µM. For the same molecule, the “MIC K. pneu. 13883” value in assay [4] (Table 4) stood at 9.38a micromolar.

With `CCCCCCCCCCCCCCCCn1cc[n+](Cc2cccc(F)c2)c1C.[Br-]` [Compound 18], in assay [3] (Table 2A, CBD assay), the “MRSE 35984 MBC” value is 11.7^a/ μM and the “MRSE 35984 MBEC” value is 11.7^a μM.

In the case of `CCCCCCCCCCCCCCCCn1cc[n+](C)c1C.[I-]` [Compound 8], the C. neoformans 66031 MIC in assay [1] was determined as 1.56 µM. Besides, in assay [1] (Table 4, antifungal), the “MIC C. neof 66031” value came out at 6.25 µM. In assay [2], this molecule displayed a C. neoformans 66031 MBC of 6.25 µM. Moreover, in assay [3] (Table 2A, CBD assay), the “MRSE 35984 MBC” value was 3.0^a/ μM and the “MRSE 35984 MBEC” value is recorded as 3.0^a μM. The “MIC K. pneu. 13883” value in assay [4] (Table 4) amounted to 12.5 µM.

Take `CCCCCCCCCCCC[N+](C)(C)CC[N+](C)(C)CC[N+](C)(C)CCCCCCCCCCCC` [QAC-10, reference compound]: the “MBEC, MRSE biofilms” value in assay [3] (MRSE ATCC 35984) was 31.3 µM. Besides, the “MRSE 35984 MBEC” value in assay [3] (Table 2, CBD assay, biofilm) is 31.3/31.3 μM; in assay [3] (Table 2A, CBD assay), 31.3 µM. The “MRSE 35984 MBC” value in assay [3] (Table 2, CBD assay, planktonic cells) was 31.3/31.3 μM; in assay [3] (Table 2A, CBD assay) it was 31.3 µM⁻¹. Besides, the MIC in assay [4] (Table 1, read-out: MIC K. pneumoniae 13883) is 25 µM. Also, the “MIC K. pneu. 13883” value in assay [4] (Table 4) was 25 µM.
